Here are results for 3 molecules from ChEMBL document CHEMBL4000201, “Benzylideneoxymorphone: A new lead for development of bifunctional mu/delta opioid receptor ligands” (Bioorg Med Chem Lett, 2017).

A short description of assay [1]: Displacement of [3H]DPDPE from DOR in guinea pig brain membranes measured after 60 mins by scintillation counting method. Format: cell membranes, Cavia porcellus, Membrane. For orientation: In a radioligand displacement assay an active substance lowers the binding of a labelled ligand.
The target in assay [2] is Mu-type opioid receptor (Homo sapiens, UniProt P35372). As to the kind of experiment: Displacement of [3H]DAMGO from human MOR expressed in CHO cells. In kind it is cell-based.
Chain of Mu-type opioid receptor (P35372 whole entry): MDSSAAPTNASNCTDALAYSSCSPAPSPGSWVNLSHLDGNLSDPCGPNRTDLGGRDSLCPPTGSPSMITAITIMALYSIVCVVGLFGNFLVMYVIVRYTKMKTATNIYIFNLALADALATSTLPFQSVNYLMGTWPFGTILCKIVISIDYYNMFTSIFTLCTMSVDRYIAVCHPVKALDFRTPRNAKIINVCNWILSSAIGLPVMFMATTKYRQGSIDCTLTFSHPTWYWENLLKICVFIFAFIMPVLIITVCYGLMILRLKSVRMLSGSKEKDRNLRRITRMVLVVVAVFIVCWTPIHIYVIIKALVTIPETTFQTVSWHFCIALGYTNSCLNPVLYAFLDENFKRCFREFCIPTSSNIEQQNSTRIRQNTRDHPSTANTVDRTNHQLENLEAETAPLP
Assay [3] addresses Delta-type opioid receptor (Homo sapiens, UniProt P41143). In words: Displacement of [3H]DPDPE from human DOR expressed in CHO cells. In kind it is cell-based.
For assay [4], the system named is Mus musculus. In words: Antinociceptive activity in Swiss-Webster mouse assessed as maximum possible effect at 20 to 60 mg/kg, sc after 30 mins measured every 20 mins for 90 mins by hot plate test. Format: functional. For orientation: Hot-plate and tail-flick tests time the reaction to a heat stimulus.
For assay [5], the system named is Mus musculus. In words: Antinociceptive activity in Swiss-Webster mouse assessed as time required for peak effect at 60 mg/kg, sc after 30 mins measured every 20 mins for 90 mins by hot plate test. In kind it is functional.

Chain of Delta-type opioid receptor (P41143 whole entry): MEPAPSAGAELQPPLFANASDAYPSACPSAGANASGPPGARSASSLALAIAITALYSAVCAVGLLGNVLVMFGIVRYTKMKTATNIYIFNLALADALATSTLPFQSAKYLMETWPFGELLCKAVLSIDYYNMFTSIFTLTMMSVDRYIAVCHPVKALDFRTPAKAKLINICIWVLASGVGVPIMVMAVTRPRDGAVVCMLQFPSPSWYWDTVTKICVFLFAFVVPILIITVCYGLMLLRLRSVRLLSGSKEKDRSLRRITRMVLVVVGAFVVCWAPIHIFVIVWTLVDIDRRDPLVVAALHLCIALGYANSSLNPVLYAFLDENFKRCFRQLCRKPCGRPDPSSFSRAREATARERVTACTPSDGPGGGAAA

Consider `O=C1/C(=C/c2ccccc2)C[C@@]2(O)[C@H]3Cc4ccc(O)c5c4[C@@]2(CCN3CC2CC2)[C@H]1O5` [BNTX], for which affinity in assay [1] was put at a Ki of 6.2 nM.
For the molecule `O=C1/C(=C/c2ccccc2)C[C@@]2(O)[C@H]3Cc4ccc(O)c5c4[C@@]2(CCN3CCCc2ccccc2)[C@H]1O5`, the values for the Ki in assay [2] and in assay [3] were 313 nM and 168 nM, respectively.
In the case of `CN1CC[C@]23c4c5ccc(O)c4O[C@H]2C(=O)/C(=C/c2ccccc2)C[C@@]3(O)[C@H]1C5`, the figures for the Ki in assay [2] and in assay [3] were 17.5 nM and 14.4 nM, respectively. Further, the MPE in assay [4] is 40%. For the same molecule, the Time in assay [5] is 50 min.
